In publication PMC5704959 (ACS chemical biology, 2016):

Biological target: human Siglec-9 (hSiglec-9-Fc, hSiglec-9) (Homo sapiens, UniProt Q9Y336)
Test: glycan microarray, fluorescence
Type: binding
Conditions: glycan immobilised on epoxide slide; PBS pH 7.4, RT, 2 h

Sequence of human Siglec-9 (hSiglec-9-Fc, hSiglec-9) (Q9Y336 18-348 limits assumed): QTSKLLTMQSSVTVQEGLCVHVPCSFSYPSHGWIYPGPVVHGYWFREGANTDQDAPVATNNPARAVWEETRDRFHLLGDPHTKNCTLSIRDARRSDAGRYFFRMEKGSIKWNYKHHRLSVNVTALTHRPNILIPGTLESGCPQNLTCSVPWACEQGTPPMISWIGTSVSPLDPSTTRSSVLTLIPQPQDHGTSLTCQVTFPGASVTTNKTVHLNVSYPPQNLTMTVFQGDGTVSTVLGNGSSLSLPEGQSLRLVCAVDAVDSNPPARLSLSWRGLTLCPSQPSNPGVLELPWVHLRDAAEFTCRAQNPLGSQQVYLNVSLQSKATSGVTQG

| SMILES | glycan microarray, fluorescence (RFU) |
| --- | --- |
| CC(=O)N[C@H]1[C@H]([C@H](O)[C@H](O)COC(C)=O)O[C@@](O[C@H]2[C@@H](O)[C@@H](CO)O[C@@H](O[C@H]3[C@H](O)[C@@H](O)[C@H](OCCCN)O[C@@H]3CO)[C@@H]2O)(C(=O)O)C[C@@H]1O [Neu5,9Ac2α3Galβ4GlcβProNH2] | observable binding to both Neu5Ac9NAc (black column) and Neu5,9Ac2 (grey column)-containing glycans |
| CC(=O)N[C@H]1[C@H]([C@H](O)[C@H](O)CO)O[C@@](O[C@H]2[C@@H](O)[C@@H](CO)O[C@@H](O[C@H]3[C@H](O)[C@@H](O)[C@H](OCCCN)O[C@@H]3CO)[C@@H]2O)(C(=O)O)C[C@@H]1O [Neu5Acα3Galβ4GlcβProNH2] | hSiglec-9 prefers binding to Neu5Ac-glycan without 9-modification at sialic acid |
